The structures appear in SMILES notation.

The first assay addresses T1, Aldehyde dehydrogenase, mitochondrial (Homo sapiens, UniProt P05091).
T1 sequence (P05091 whole entry): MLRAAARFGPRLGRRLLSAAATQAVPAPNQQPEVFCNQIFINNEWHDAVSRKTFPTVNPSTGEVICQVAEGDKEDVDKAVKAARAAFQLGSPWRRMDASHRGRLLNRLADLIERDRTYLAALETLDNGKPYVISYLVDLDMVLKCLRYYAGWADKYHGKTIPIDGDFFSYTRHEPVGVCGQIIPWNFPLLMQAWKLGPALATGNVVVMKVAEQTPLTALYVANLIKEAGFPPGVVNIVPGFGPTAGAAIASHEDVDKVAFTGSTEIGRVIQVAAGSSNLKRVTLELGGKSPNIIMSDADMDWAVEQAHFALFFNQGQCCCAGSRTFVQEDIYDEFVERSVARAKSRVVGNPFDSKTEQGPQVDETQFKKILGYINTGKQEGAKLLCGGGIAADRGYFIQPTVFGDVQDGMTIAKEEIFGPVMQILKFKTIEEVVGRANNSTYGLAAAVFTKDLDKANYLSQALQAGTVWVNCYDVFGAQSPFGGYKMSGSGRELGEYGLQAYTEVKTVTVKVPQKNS
The assay can be described thus: Inhibition of human recombinant ALDH2.
For the compound `COc1cc(O)c2c(=O)c(-c3ccc(O)cc3)coc2c1` [PRUNETIN], the Ki came out at 450 nM.

Tested on in the next assay: not listed separately
The experiment in a line: Inhibition of hamster liver ALDH2. Details: species or system Cricetinae.
`CCCCCCOc1ccc2c(=O)c(-c3ccc(O)cc3)coc2c1` gave an IC50 of 1500 nM.

`O=C(O)CCCCCCCCCOc1ccc2c(=O)c(-c3ccc(O)cc3)coc2c1` displayed an IC50 of 50 nM.

`O=C(O)CCCCOc1ccc2c(=O)c(-c3ccc(O)cc3)coc2c1` came in with a concentration for half-maximal inhibition (IC50) of 100 nM.

In turn, `CCCCCCCCCCCCOc1ccc2c(=O)c(-c3ccc(O)cc3)coc2c1` showed an IC50 of over 9000 nM.

`O=c1c(-c2ccc(O)cc2)coc2cc(OCCOCCOCCO)ccc12`: the IC50 came to 40 nM.

In turn, `O=C(O)CCCCCCCOc1ccc2c(=O)c(-c3ccc(O)cc3)coc2c1` had an IC50 of 40 nM.

Compound `CCOc1ccc2c(=O)c(-c3ccc(O)cc3)coc2c1` yielded an IC50 of 80 nM.

Compound `O=C(O)CCCCCCCCCCCOc1ccc2c(=O)c(-c3ccc(O)cc3)coc2c1` returned an IC50 of 130 nM.

In turn, `O=C(O)COc1ccc2c(=O)c(-c3ccc(O)cc3)coc2c1` returned an IC50 of 1200 nM.

Consider `O=c1c(-c2ccc(O)cc2)coc2cc(O)ccc12` [DAIDZEIN], for which the IC50 turned out to be 9000 nM.

A word on the Ki: it is the equilibrium dissociation constant of an inhibitor or competing ligand from its target. One may read the IC50 as the concentration that gives 50% inhibition.

Values taken from ChEMBL document CHEMBL1155835 (J Med Chem, 2008).
